From US6743445B2, “Low temperature coatings” (BTG International Limited, priority 1998, dated 2004)
Where a name gives a salt, the structure may show the parent alone.

Legend:
[1] = Influence of plasticiser type on the MFFT of Aquacoat dispersion; assay type: physicochemical; conditions: plasticiser added as emulsion
Protocol: (§1) Two different methods were used to evaluate the influence of plasticiser type, quantity and incorporation technique on the MFFT on Surelease® EA7100 and Aquacoat® ECD30. The minimum film-forming temperature (MFFT) is the lowest temperature at which the film-forming composition solidifies to form a film.
(§2) The first was by pouring the dispersions onto glass petri dishes. These dispersions were dried at ambient temperature (15-25° C.) in Class 2 cleanroom environment and inspected visually. They referred to the plasticisation level needed to form films at 20±5° C. The same numerical grading system was used to evaluate the mixed films of examples 2 to 4.
(§3) The second method determined the specific MFFT for each formulation. A MFFT bar was used. The hot water bath on one end of the MFFT bar was set at 46±1° C. and the cold water bath on the other end was set at 3±1° C. This created a temperature gradient of 32.5±1.0° C. to 12±1.0° C. across the spreading surface. The temperature gradient across the MFFT bar was allowed to equilibrate for at least two hours prior to use. The temperatures were measured at the beginning and at the end of each experiment using a Jenway 3070 digital-display thermometer. The apparatus was levelled using the adjustable support and a spirit level. The plasticised dispersion formulations were spread across the surface. Once spread, the film was allowed to form at room humidity. After the film had dried, the lowest temperature on the bar at which the film was still continuous was taken as the MFFT. If the film became discontinuous in between two temperature sampling points then the higher of the two sampled temperatures was taken to be the MFFT. All experiments were duplicated. The reported MFFT was an average of the four temperatures taken at the beginning and at the end of each duplicate experiment.
(§4) In the third technique, the required amount of plasticiser, Tween 80™ and the pseudolatex were mixed with a high speed Silverson homogeniser mixer for 3 minutes. The additional plasticiser content of compositions comprising Surelease® has between 0 and 12% by weight of the ethyl cellulose solids. For compositions comprising Aquacoat®, plasticiser contents of between 18 and 30% by weight of the ethyl cellulose solids were investigated. In all cases Tween 80™ was present in an amount of 0.01% by weight of the dispersion. The formulations were left overnight in sealed containers. Any formulations that remained foamy after overnight storage were not investigated further. Otherwise, the formulations were evaluated on the MFFT apparatus. The plasticisers used were dibutyl sebacate, triethyl citrate, triacetin, acetyl tributyl citrate, tributyl citrate, polypropylene glycol, glycerol and polyethylene glycol 400.
In the final technique, Tween 80, the plasticiser and water were premixed into a crude emulsion prior to addition to ethyl cellulose coating dispersions. A plasticiser emulsion was formed by mixing parts of plasticiser and water with 0.1% of Tween 80™ using a Silverson homogeniser mixer. The freshly mixed plasticiser emulsion was then added to the ethyl cellulose coating dispersion by magnetic stirring for 30 minutes. […] Only Aquacoat® ECD30 formulations were investigated. Aquacoat® ECD30 was plasticised with dibutyl sebacate, triethyl citrate, triacetin, acetyl tributyl citrate, tributyl citrate, polypropylene glycol, glycerol and polyethylene glycol 400. The basic formulations comprise between 18 and 36% of plasticiser by weight of solids in the dispersion and 0.1% w/w Tween 80.

[2] = Influence of plasticiser type on the MFFT of Surelease dispersion; assay type: physicochemical; conditions: plasticiser added by high-shear mixing
Protocol: as §1, §2, §3, §4

Compound	Lowering of the MFFT of Aquacoat® [1]	Lowering of the MFFT of Surelease® [2]
CCCCOC(=O)CC(CC(=O)OCCCC)(OC(C)=O)C(=O)OCCCC [acetyl tributyl citrate]	successful in lowering the MFFT	successful in lowering the MFFT
CCCCOC(=O)CCCCCCCCC(=O)OCCCC [dibutyl sebacate]	successful in lowering the MFFT	successful in lowering the MFFT
OCC(O)CO [glycerol]	unsuccessful	unsuccessful
CC(=O)OCC(COC(C)=O)OC(C)=O [triacetin]	lowering the MFFT	–
CCCCOC(=O)CC(O)(CC(=O)OCCCC)C(=O)OCCCC [tributyl citrate]	successful in lowering the MFFT	successful in lowering the MFFT
CCOC(=O)CC(O)(CC(=O)OCC)C(=O)OCC [triethyl citrate]	lowering the MFFT	–
